# In ChEMBL document CHEMBL5465560, “Selectivity Literature for EUbOPEN Chemogenomic Library” (2024):
# Assays:
# [1] = target: Tyrosine-protein kinase SYK (Homo sapiens, UniProt P43405); assay: Selectivity interaction (KinomeScan (DiscoverX)) EUB0001079a SYK; settings: at 1 µM
# [2] = target: Ribosomal protein S6 kinase alpha-5 (Homo sapiens) (UniProt O75582); assay: Selectivity interaction (KinomeScan (DiscoverX)) EUB0000666a RPS6KA5; settings: at 10 µM
# [3] = target: Eukaryotic translation initiation factor 2-alpha kinase 1 (Homo sapiens) (UniProt Q9BQI3); settings: at 10 µM
# [4] = target: T1, Tyrosine-protein kinase ITK/TSK (Homo sapiens) (UniProt Q08881); assay: Selectivity interaction (KinomeScan (DiscoverX)) EUB0001619a ITK; settings: at 1 µM
# T1 sequence (whole entry): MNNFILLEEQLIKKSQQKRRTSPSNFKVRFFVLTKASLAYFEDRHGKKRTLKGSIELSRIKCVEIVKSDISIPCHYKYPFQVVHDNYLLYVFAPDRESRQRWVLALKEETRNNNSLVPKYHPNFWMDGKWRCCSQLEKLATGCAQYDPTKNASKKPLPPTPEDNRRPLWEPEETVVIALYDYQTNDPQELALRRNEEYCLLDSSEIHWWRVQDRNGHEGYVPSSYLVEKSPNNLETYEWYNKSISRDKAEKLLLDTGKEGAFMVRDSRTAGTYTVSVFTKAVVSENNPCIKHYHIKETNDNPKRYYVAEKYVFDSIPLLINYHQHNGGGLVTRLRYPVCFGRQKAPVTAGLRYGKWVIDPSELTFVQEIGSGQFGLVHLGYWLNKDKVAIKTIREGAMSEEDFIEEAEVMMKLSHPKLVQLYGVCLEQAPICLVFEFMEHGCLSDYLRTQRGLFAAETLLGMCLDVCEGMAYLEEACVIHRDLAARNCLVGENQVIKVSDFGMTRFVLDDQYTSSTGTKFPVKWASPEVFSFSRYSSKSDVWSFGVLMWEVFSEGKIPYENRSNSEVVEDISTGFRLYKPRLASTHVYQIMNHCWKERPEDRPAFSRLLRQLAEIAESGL
# [5] = target: Mitogen-activated protein kinase kinase kinase kinase 5 (Homo sapiens) (UniProt Q9Y4K4); assay: Selectivity interaction (KinomeScan (DiscoverX)) EUB0000618a MAP4K5; settings: at 10 µM
# [6] = target: Tyrosine-protein kinase ABL2 (Homo sapiens, UniProt P42684); assay: Selectivity interaction (ActivX KiNativ screen (kinase selectivity in THP-1 cell lysates)) EUB0000639a ABL2; type: subcellular; settings: lysate, at 5 µM
# [7] = target: MAP kinase-activated protein kinase 2 (Homo sapiens, UniProt P49137); assay: Selectivity interaction (KinomeScan (DiscoverX)) EUB0000655a MAPKAPK2; settings: at 10 µM
# [8] = target: T2, Serine/threonine-protein kinase TAO2 (Homo sapiens) (UniProt Q9UL54); assay: Selectivity interaction (KinomeScan (DiscoverX)) EUB0000655a TAOK2; settings: at 10 µM
# T2 sequence (whole entry): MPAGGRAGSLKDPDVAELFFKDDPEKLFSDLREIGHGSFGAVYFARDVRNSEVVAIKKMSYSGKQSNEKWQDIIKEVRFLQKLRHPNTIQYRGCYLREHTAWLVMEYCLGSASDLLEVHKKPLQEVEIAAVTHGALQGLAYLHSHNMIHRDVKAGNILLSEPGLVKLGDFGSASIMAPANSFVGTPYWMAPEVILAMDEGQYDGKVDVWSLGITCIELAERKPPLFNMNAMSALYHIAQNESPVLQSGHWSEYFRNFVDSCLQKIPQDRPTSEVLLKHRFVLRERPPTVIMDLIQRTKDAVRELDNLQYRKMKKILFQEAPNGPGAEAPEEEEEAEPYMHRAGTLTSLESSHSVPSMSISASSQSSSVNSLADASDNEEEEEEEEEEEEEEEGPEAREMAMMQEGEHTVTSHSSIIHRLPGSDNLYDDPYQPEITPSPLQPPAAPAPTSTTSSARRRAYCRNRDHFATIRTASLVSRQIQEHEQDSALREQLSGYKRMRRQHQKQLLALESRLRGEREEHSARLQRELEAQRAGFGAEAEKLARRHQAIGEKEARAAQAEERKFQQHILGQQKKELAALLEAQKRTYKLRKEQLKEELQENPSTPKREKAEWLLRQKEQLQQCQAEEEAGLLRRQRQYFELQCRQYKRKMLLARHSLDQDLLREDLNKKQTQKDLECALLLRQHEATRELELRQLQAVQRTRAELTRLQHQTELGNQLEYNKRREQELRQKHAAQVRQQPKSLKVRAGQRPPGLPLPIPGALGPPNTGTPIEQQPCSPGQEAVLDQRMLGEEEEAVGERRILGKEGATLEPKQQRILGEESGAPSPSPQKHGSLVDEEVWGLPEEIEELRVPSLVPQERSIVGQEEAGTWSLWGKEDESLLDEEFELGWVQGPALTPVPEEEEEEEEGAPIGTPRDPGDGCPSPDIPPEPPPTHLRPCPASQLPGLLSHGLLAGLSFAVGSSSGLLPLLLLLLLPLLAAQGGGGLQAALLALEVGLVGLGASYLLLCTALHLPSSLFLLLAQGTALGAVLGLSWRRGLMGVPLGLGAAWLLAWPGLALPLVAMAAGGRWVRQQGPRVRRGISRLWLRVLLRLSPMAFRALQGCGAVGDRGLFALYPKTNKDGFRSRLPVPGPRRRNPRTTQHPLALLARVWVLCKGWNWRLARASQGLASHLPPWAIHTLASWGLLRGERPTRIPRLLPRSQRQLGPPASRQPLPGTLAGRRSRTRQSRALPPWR
# Chain of Tyrosine-protein kinase ABL2 (P42684 whole entry): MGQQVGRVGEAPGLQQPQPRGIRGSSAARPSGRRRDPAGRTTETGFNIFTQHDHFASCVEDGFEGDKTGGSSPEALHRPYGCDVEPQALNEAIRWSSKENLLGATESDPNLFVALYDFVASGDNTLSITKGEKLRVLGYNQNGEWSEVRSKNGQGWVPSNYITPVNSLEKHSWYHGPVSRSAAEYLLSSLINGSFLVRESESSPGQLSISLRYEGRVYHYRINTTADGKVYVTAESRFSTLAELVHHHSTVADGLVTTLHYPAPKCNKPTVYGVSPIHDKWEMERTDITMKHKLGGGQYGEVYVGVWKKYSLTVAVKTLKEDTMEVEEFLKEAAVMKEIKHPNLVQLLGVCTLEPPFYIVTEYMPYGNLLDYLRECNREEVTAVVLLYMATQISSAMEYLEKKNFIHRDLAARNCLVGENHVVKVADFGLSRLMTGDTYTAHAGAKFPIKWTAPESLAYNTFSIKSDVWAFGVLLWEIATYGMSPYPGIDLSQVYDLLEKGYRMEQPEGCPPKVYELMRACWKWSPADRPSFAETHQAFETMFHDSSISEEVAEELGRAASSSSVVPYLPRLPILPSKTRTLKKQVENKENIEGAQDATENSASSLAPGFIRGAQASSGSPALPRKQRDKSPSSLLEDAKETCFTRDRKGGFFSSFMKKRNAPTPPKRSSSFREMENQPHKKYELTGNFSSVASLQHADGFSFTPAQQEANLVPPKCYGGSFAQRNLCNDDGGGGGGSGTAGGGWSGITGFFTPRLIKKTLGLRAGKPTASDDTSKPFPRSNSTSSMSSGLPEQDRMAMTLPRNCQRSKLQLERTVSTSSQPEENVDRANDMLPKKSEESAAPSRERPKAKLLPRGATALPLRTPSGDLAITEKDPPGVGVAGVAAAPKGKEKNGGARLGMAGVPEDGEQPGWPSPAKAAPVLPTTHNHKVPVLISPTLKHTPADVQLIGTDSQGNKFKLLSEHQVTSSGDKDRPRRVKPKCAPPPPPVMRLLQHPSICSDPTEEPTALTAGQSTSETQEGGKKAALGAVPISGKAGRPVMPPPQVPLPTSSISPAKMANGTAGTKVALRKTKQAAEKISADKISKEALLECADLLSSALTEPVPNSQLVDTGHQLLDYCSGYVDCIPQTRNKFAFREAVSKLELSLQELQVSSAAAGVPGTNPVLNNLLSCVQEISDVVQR
# Chain of Eukaryotic translation initiation factor 2-alpha kinase 1 (Homo sapiens) (Q9BQI3 whole entry): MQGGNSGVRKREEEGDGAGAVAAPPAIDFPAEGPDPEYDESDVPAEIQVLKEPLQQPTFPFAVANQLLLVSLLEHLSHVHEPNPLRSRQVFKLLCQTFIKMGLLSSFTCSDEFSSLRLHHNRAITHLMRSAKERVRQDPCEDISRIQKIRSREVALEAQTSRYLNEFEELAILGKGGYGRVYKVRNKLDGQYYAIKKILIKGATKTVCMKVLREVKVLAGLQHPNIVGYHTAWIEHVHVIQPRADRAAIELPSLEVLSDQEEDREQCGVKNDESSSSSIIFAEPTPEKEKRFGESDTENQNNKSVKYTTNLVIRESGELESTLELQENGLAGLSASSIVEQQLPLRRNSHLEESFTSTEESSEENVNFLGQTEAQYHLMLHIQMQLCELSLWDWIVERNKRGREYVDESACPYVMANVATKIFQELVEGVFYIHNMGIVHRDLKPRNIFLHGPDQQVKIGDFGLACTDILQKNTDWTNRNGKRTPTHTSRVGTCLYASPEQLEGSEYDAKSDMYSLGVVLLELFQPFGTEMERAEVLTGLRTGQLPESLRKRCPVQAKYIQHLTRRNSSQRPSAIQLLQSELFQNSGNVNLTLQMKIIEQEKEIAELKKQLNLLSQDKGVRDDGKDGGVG
# Chain of Mitogen-activated protein kinase kinase kinase kinase 5 (Homo sapiens) (Q9Y4K4 whole entry, looked up): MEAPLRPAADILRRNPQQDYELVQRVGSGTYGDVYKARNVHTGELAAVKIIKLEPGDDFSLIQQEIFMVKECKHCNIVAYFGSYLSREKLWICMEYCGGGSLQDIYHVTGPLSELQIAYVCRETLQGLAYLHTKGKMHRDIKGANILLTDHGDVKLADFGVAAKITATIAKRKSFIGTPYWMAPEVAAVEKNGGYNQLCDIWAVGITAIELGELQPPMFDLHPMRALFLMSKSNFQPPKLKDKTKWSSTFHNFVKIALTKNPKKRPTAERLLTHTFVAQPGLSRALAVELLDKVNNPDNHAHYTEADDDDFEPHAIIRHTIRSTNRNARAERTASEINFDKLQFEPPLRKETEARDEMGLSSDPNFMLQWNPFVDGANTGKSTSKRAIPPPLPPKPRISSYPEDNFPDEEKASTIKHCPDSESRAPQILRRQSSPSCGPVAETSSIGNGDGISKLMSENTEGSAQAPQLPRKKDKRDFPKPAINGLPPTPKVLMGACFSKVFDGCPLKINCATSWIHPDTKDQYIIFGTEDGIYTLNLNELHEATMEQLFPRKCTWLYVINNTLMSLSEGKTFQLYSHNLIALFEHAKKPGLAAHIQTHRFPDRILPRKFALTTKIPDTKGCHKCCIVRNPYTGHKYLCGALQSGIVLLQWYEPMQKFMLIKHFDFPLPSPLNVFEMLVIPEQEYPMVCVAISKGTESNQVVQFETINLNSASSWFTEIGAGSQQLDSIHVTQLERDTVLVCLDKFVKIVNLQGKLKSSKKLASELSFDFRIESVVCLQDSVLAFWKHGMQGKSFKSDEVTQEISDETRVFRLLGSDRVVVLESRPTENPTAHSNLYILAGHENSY
# Chain of MAP kinase-activated protein kinase 2 (P49137 whole entry, looked up): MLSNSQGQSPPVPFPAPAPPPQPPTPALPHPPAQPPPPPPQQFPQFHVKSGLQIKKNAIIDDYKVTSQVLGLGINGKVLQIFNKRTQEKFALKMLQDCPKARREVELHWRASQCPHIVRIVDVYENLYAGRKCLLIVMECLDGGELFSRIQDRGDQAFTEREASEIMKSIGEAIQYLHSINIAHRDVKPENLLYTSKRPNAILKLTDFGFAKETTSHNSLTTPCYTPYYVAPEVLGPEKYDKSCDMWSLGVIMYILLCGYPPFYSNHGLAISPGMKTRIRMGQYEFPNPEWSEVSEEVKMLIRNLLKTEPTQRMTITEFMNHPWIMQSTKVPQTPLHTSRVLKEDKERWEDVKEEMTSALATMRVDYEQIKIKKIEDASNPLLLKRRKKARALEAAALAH
# Chain of Ribosomal protein S6 kinase alpha-5 (Homo sapiens) (O75582 whole entry, looked up): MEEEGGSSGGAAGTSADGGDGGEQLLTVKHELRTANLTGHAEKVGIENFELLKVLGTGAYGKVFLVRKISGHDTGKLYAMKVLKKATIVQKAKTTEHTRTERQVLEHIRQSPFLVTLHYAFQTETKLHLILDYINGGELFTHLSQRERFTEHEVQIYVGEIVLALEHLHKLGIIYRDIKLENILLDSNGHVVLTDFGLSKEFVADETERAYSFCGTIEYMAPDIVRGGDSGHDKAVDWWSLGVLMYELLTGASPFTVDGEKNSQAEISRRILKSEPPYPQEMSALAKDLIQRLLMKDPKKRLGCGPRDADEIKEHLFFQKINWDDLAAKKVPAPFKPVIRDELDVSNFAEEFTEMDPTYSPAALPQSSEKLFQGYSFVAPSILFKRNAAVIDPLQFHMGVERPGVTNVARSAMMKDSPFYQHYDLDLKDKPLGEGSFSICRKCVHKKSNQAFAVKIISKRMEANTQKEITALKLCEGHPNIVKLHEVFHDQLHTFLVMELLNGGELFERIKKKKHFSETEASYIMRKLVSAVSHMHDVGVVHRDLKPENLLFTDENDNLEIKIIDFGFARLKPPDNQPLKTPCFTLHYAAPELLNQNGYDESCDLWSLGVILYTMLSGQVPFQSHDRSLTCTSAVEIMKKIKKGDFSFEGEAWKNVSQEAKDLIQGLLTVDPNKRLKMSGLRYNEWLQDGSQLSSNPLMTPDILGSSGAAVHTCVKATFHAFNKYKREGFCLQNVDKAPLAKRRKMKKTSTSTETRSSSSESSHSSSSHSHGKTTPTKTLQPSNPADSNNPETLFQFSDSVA
compound,measurement,setting,value
Nc1cnc(N2CCc3cc(S(=O)(=O)Nc4c(F)cc(Cl)cc4F)cc(N4CCCC4=O)c32)nc1 [TP-020n],% of control,[1],100%
O=C(NOC[C@H](O)CO)c1ccc(F)c(F)c1Nc1ccc(I)cc1F,% of control,[2],100%
Cc1cc([C@@H](C)Nc2ccccc2C(=O)O)c2nc(N3CCOCC3)cc(=O)n2c1 [AZD-6482],% of control,[3],97%
N#Cc1cccc(-c2c[nH]c3ncnc(N4CCOCC4)c23)c1,% of control,[4],100%
O[C@H]1CC[C@H](Nc2ncc3nc(Nc4c(F)cc(F)cc4F)n([C@H]4CCOC4)c3n2)CC1,% of control,[5],100%
CC[C@@H]1[C@H](F)C(=O)N[C@@H]1COc1nccc2cc(C(N)=O)c(OC)cc12 [ZIMLOVISERTIB],% of inhibition,[6],30.7%
CN(C)CCOc1ccc(-c2nc(-c3ccncc3)c(-c3ccc4c(c3)CC/C4=N\O)[nH]2)cc1,% of control,[7],100%
same,% of control,[8],65%
